The values below come from PMC9056986 (RSC Advances, 2020).

For orientation: IC50 means the concentration that gives 50% inhibition. The low end stands for higher potency, the high end for lower potency.

In the assay the target is HCV-NS3/4A protease (Hepacivirus hominis (Hepatitis C virus), UniProt O92972). Briefly: HCV-NS3/4A protease inhibition, in vitro FRET assay. Type of assay: biochemical. As to conditions: IC50, purified HCV-NS3/4A protease.
Sequence of HCV-NS3/4A protease (O92972 1027-1207, other chains not shown): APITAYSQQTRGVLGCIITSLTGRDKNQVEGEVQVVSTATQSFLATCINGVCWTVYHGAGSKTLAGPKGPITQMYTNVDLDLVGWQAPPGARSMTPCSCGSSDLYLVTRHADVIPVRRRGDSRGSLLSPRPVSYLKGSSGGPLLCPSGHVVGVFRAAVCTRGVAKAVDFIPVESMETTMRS
The molecule `Cn1c(NN)nc2cc3ccccc3cc2c1=O` [Compound 7, 3-Methyl-2-hydrazinylbenzo[g]quinazolin-4(3H)-one] returned an IC50 of 22.3 ± 0.46 µM.
Regarding `CCn1c(NN)nc2cc3ccccc3cc2c1=O` [Compound 8, 3-Ethyl-2-hydrazinyl-benzo[g]quinazolin-4(3H)-one], half-maximal inhibition (IC50) was put at 78.8 ± 1.7 µM.
`Cc1ccc2nc(NN)n(C)c(=O)c2c1` [Compound 14, 3-Methyl-2-hydrazinyl-6-methyl-3H-quinazolin-4-one] had an IC50 of 25.5 ± 0.55 µM. This IC50 lies about 3.1-fold lower than the previous one.
As for `CCn1c(NN)nc2ccc(C)cc2c1=O` [Compound 15, 3-Ethyl-2-hydrazinyl-6-methyl-3H-quinazolin-4-one], the figure is 178 ± 3.9 µM.
